Experimental data taken from the NIST ThermoML archive (doi:10.1021/acs.jced.8b00213).

Columns and labels:
[1] = refractive index (Na D-line) (dimensionless); xn = mol fraction of the nth substance listed; conditions: 100 kPa, Liquid, Standard Abbe refractometry, x1 = 0.25
[2] = xn = mol fraction of the nth substance listed; conditions: 100 kPa, Liquid, x1 = 0.25; for electrical conductivity: Alternating current cell with electrodes; for viscosity: Falling or rolling sphere viscometry; for speed of sound: Single path-length method; for mass density: Vibrating tube method

C[N+](C)(C)Cc1ccccc1.[Cl-] [trimethylbenzylammonium chloride] + OCCO
Conditions	electrical conductivity, [2] [S/m]	mass density, [2] [kg/m3]	refractive index, [1]	speed of sound, [2] [m/s]	viscosity, [2] [mPa·s]
283.15 K	0.263	1110.06	1.4995	1856.7	101.9
288.15 K	0.32	1107	1.498	1843.6	76.1
293.15 K	0.391	1103.95	1.4966	1830.8	58.2
298.15 K	0.461	1100.92	1.4951	1818	45.3
303.15 K	0.552	1097.89	1.4935	1805.3	35.9
308.15 K	0.643	1094.87	1.4921	1792.7	29
313.15 K	0.75	1091.85	1.4907	1780.2	23.9
318.15 K	0.872	1088.84	1.4893	1767.8	19.9
323.15 K	0.997	1085.83	1.4878	1755.4	16.8
328.15 K	1.12	1082.83	1.4864	1743	14.3
333.15 K	1.25	1079.82	1.4849	1730.7	12.3
338.15 K	1.41	1076.82	1.4835	1718.5	10.7
343.15 K	1.56	1073.83	1.482	1706.6	9.5
